Results: US11478469B2, “Combination product of BCL-2 inhibitor and MDM2 inhibitor and use thereof in the prevention and/or treatment of diseases” (ASCENTAGE PHARMA (SUZHOU) CO., LTD., priority 2018, dated 2022)

Key:
[1] = tested on: human MV-4-11 AML xenograft; experiment: MV-4-11 AML xenograft in Balb/c nude mice; type: in vivo, mouse; details: for Response rate @D 22: mPD (progressive disease) / Best response rate: mPD (progressive disease): compound 6 100 mg/kg and/or APG-115 100 mg/kg, mice per group; for Response rate @D 22: mPD (progressive disease) / RTV @ D 22 / T/C (%) @ D 22: day 22; for RTV @ D 22 / T/C (%) @ D 22: compound 6 100 mg/kg p.o. qd×22 d and/or APG-115 100 mg/kg orally daily d1-7 and d16-22
From the text: (§1) A subcutaneous xenograft tumor model of human tumor immunodeficient mice was established by cell inoculation (see: Gould S E et al. Translational value of mouse models in oncology drug development. Nature medicine. 2015 21, 431-439; and, Souers A J et al. ABT-199, a potent and selective BCL-2 inhibitor, achieves antitumor activity while sparing platelets. Nature medicine. 2012 19.202-208): tumor cells in logarithmic growth phase were collected, counted and resuspended in 1×PBS, and the cell suspension concentration was adjusted to 2.5-5×10^7/mL. Using a 1 mL syringe ([…]), the tumor cells were inoculated subcutaneously in the right side of immunodeficient mice, 5-10×106/0.2 mL/mouse (experimental animals were purchased from Beijing Vital River Laboratory Animal Technology Co., Ltd. SCXK (Beijing) 2016-0006). All animal experiments were strictly in accordance with the laboratory animal use and management practices of GenePharma Co., Ltd. and Ascentage Pharma Group Co., Ltd. The calculation of relevant parameters referred to the Chinese CFDA “Guidelines for Non-Clinical Research Techniques of Cytotoxic Antitumor Drugs”.
(§2) Animal body weight and tumor size were measured twice a week during the experiment. The conditions and death of the animals were observed every day. Routine monitoring included the effects of tumor growth and treatment on normal animal behaviors, including activity, feeding and drinking situations, weight gain or loss, eyes, coat and other abnormalities in the experimental animals. The deaths and clinical symptoms observed during the experiment were recorded in the raw data. The entire operations of administration, measurement of mouse body weight and tumor volume were performed in a clean bench. Plasma and tumor tissues were collected, weighed and photographed after the end of the last administration according to the experimental protocol. Plasma and tumor samples were frozen and stored at −80° C.
(§3) Tumor volume (TV) was calculated as: TV=a×b2/2, in which a and b represented the length and width of the tumor as measured, respectively. The relative tumor volume (RTV) was calculated as: RTV=Vt/V1, in which V1 was the tumor volume at the time of grouping and administration, and Vt was the tumor volume measured on a day after administration. The evaluation index of anti-tumor activity was the relative tumor proliferation rate T/C (%), which was calculated as: relative tumor proliferation rate T/C (%)=(TRTV/CRTV)×100%, in which TRTV was the RTV of the treatment group, CRTV was the RTV of the vehicle control group; tumor remission rate (%) was calculated as: (the number of SD (stable disease), PR (tumor partial regression) and CR (tumor complete regression) in the tumor-bearing mice after treatment)/the total number of mice in the group×100%. Change of body weight %=(measured body weight−body weight at the time of grouping)/body weight at the time of grouping×100%.
(§4) The synergistic analysis was performed by the following formula (Gould S E et al. Translational value of mouse models in oncology drug development. Nature medicine. 2015 21, 431-439): synergy factor=((A/C)×(B/C))/(AB/C); A=RTV value of the group administered with A only; B═RTV value of the group administered with B only; C=RTV value of the vehicle control group; AB=RTV value of the group administered with A and B in combination (Clarke R. Issues in experimental design and endpoint analysis in the study of experimental cytotoxic agents in vivo in breast cancer and other models [J]. Breast Cancer Research & Treatment, 1997, 46(2-3): 255-278).
(1) The experimental method was as described in Section (2) of Example 1. Compound 6 is a selective BCL-2 inhibitor developed by the Ascentage Pharma Group. The agent is currently under clinical development for cancer therapy both in China and in the US. Enhanced anti-proliferation activity of APG-115 in combination with compound 6 has been observed in cell-based assay in AML cell lines in vitro. […]

[2] = tested on: human OCI-AML-3 (AML) mouse xenograft tumor; experiment: Human OCI-AML-3 AML mouse xenograft tumor model; type: in vivo; details: for antitumor effect in words: 11 days of administration, Compound 6 25 or 100 mg/kg qd, APG-115 100 mg/kg (d1-d4) and 50 mg/kg (d5-d11) q2d
From the text: as §1, §2, §3, §4
(1) The experimental method was as described in Section (2) of Example 1. […] Therefore, a mouse xenograft tumor model was further established using the OCI-AML-3 tumor cell line to evaluate the in vivo anti-tumor effects of Compound 6 and APG-115. […]

[3] = tested on: MOLM-13-Luc systemic human AML; experiment: Systemic MOLM-13-Luc human AML xenograft model in NOD SCID mice; type: in vivo, mouse; details: compound 6 100 mg/kg qd×21 d; APG-115 100 mg/kg daily for seven days
Method: (1) The combined benefits of APG-115 and compound 6 for the therapy of AML was further evaluated in a difficult-to-treat disseminated MOLM-13-Luc systemic human AML model.
The MOLM-13-Luc tumor cells were maintained in vitro as suspension culture in RPMI 1640 medium supplemented with 10% heat inactivated fetal bovine serum (Gibco product), 100 U/mL penicillin and 100 μg/mL streptomycin, at 37° C. in an atmosphere of 5% CO2 in air. The tumor cells were routinely subcultured twice weekly. The cells growing in an exponential growth phase were harvested and counted for tumor inoculation.
The female NOD SCID mice were pre-treated with 2 times of 150 mg/kg cyclophosphamide, QD, at 24 hours before cell inoculation. Each mouse was inoculated with MOLM-13-Luc tumor cells (2×10^6/mouse) in 0.2 mL of PBS via tail vein for tumor development.
Animals were selected for grouping on day 3 after tumor implantation when the average bioluminescence measurement reached 3.18×107 photons/sec. A high dose pulse regimen (i.e. 100 mg/kg daily for seven days) was applied for APG-115 in this study.

[4] = tested on: human RS4;11 (ALL) mouse xenograft tumor; experiment: Human RS4;11 ALL mouse xenograft tumor model; type: in vivo; details: for antitumor effect in words: 21 days of administration, Compound 6 50 mg/kg qd alone (12.5 or 50 mg/kg in combination), APG-115 50 mg/kg q2d; for CR (tumor complete regression), mice per group, day 21 after administration / PR (tumor partial regression), mice per group, day 21 after administration / RTV on day 21 after administration (mean ± standard error) / T/C (%) on day 21 after administration / Tumor remission rate % on day 21 after administration: Compound 6 50 mg/kg qd and/or APG-115 50 mg/kg q2d; for Tumor remission rate % on day 21 after administration: remission including CR, PR, and SD
From the text: as §1, §2, §3, §4
(1) The experimental method was as described in Section (2) of Example 1. RS4;11 carried wild-type p53 and was an ideal model for evaluating the anti-tumor effect of MDM2 inhibitors. […]

[5] = APG-115 50 mg/kg alone (text: 100 mg/kg d1-d4, 50 mg/kg d5-d11, q2d)
[6] = Compound 6 25 mg/kg qd, alone or with APG-115 50 mg/kg
[7] = Compound 6 100 mg/kg qd, alone or with APG-115 50 mg/kg

CCN1[C@@H](C(=O)NC23CCC(C(=O)O)(CC2)CC3)[C@H](c2cccc(Cl)c2F)[C@]2(C(=O)Nc3cc(Cl)ccc32)C12CCCCC2 [APG-115]
Response rate @D 22: mPD (progressive disease) [1]: 6/6 mPD
Best response rate: mPD (progressive disease) [1]: 6/6 mPD
RTV @ D 22 [1]: 9.2 ± 2.3
T/C (%) @ D 22 [1]: 67.1%
antitumor effect in words [2]: did not exhibit tumor growth inhibition
RTV on day 11 after administration [2, 5]: 12.5 ± 2.5
T/C (%) value on day 11 after administration [2, 5]: 69%
anti-leukemia activity / bioluminescence signals in words [3]: remarkedly decreased bioluminescence signals
antitumor effect in words [4]: no tumor growth inhibition effect
CR (tumor complete regression), mice per group, day 21 after administration [4]: 0/5
PR (tumor partial regression), mice per group, day 21 after administration [4]: 0/5
RTV on day 21 after administration (mean ± standard error) [4]: 11.1 ± 0.9
T/C (%) on day 21 after administration [4]: 106%
Tumor remission rate % on day 21 after administration [4]: 0%

O=C(NS(=O)(=O)c1ccc(NC[C@H]2COCCO2)c([N+](=O)[O-])c1)c1ccc(N2CCN(CC3=C(c4ccc(Cl)cc4)CC4(CCC4)CC3)CC2)cc1Oc1cnc2[nH]ccc2c1 [Compound 6, (S)-N-((4-(((1,4-dioxan-2-yl)methyl)amino)-3-nitrophe-nyl)sulfonyl)-2-((1H-pyrrolo[2,3-b]pyridin-5-yl)oxy)-4-(4-((6-(4-chlorophenyl)spiro[3.5]non-6-en-7-yl)meth-yl)piperazin-1-yl)benzamide]
Response rate @D 22: mPD (progressive disease) [1]: 6/6 mPD
Best response rate: mPD (progressive disease) [1]: 6/6 mPD
RTV @ D 22 [1]: 7.5 ± 0.9
T/C (%) @ D 22 [1]: 55.1%
antitumor effect in words [2]: did not exhibit tumor growth inhibition
RTV on day 11 after administration [2, 6]: 16.2 ± 2.3
T/C (%) value on day 11 after administration [2, 6]: 90%
RTV on day 11 after administration [2, 7]: 13.0 ± 1.9
T/C (%) value on day 11 after administration [2, 7]: 72%
anti-leukemia activity / bioluminescence signals in words [3]: limited anti-leukemia activity
antitumor effect in words [4]: excellent antitumor effect
CR (tumor complete regression), mice per group, day 21 after administration [4]: 0/5
PR (tumor partial regression), mice per group, day 21 after administration [4]: 1/5
RTV on day 21 after administration (mean ± standard error) [4]: 1.8 ± 0.4
T/C (%) on day 21 after administration [4]: 17%
Tumor remission rate % on day 21 after administration [4]: 20%
